The source of these data is ChEMBL document CHEMBL1126565, “Three-dimensional QSAR of human immunodeficiency virus (I) protease inhibitors. 1. A CoMFA study employing experimentally-determined alignment rules” (J Med Chem, 1993).

The target in the assay is Human immunodeficiency virus type 1 protease (Human immunodeficiency virus 1, UniProt Q72874). In words: Inhibitory potency against HIV-1 protease.

Starred links: 1 amine or outer side, 2 acyl side, 3 side chain; linkers in the order of their positions; H or OH if unused. Non-standard residues stand in square brackets, D forms with d. Residues, ends and D or L forms follow the SMILES beside them. ξ: configuration not given here. Pheψ(R-CH(OH)CH2N)Pro = O=C([C@@H]1CCCN1C[C@@H](O)[C@H](Cc1ccccc1)N[*:1])[*:2]; Sta = CC(C)C[C@H](N)[C@@H](O)CC(=O)O; ξIva = CCC(C)(N)C(=O)O

For orientation: IC50 means the concentration at which inhibition is half-maximal. Read a low IC50 as greater potency in that assay. For `COC(=O)[C@@H](NC(=O)[C@H](CC(C)C)NC(=O)[C@@H]1CCCN1C[C@@H](O)[C@H](Cc1ccccc1)NC(=O)[C@H](CC(N)=O)NC(=O)[C@H](CC(C)C)NC(=O)[C@H](CO)NC(C)=O)C(C)C` (Ac-SLN[Pheψ(R-CH(OH)CH2N)Pro]LV-OMe), half-maximal inhibition (IC50) was put at 0.0034 µM. The same measure for `CC[C@H](C)[C@H](N)C(=O)N[C@@H](CCC(N)=O)C(=O)N[C@@H](CC(C)C)[C@@H](O)CC(=O)N[C@@H](CC(N)=O)C(=O)N[C@@H](Cc1ccccc1)C(=O)N[C@@H](CO)C(=O)O` (H-IQ[Sta]NFS-OH): 12 µM; for `CCC(C)(NC(=O)[C@@H](NC(=O)[C@@H](NC(=O)C[C@H](O)[C@H](CC(C)C)NC(=O)[C@H](C)NC(=O)C[C@H](O)[C@@H](N)CC(C)C)C(C)C)C(C)C)C(=O)O` (stereo partly drawn) (H-[Sta]A[Sta]VV[ξIva]-OH): 12 µM.
